Some test systems named below: HCC 2998; HCT-116; BT-549; NCI/ADR-RES; UO-31; NCI-H226; COLO 205; SNB-75; SF-539; NCI-H23; MDA-MB-231; LOX IMVI; T47D; ACHN; HOP-92; OVCAR-8; EKVX; Malme-3M; NCI-H522; CAKI-1.
What all share (test): inhibition of tumour cell growth, NCI panel, 48 h

Results on ten compounds are retold here after ChEMBL document CHEMBL1201862, “PubChem BioAssay data set” (2004).

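Step 1: Grow cells in 96-well plates. Step 2: Expose to compound for 48 hours at 5 concentrations. Step 3: Interpolate endpoints linearly; if unreached, use highest concentration. GI50 is the concentration that inhibits growth by half.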 Active and inactive are the calls of the source. Rule as the data show it: active = GI50 up to about 1.1 µM and inactive = higher.

On to `CC(=O)CSCc1ccccn1`, for which the GI50 in the assay on HCC 2998 is 39.9 µM (inactive); with HCT-116 it was 45.3 µM (inactive); in the assay with BT-549 it was 47.5 µM (inactive); in the assay on NCI/ADR-RES, > 100 µM (inactive); with UO-31 it was > 100 µM (inactive); with NCI-H226, 19.9 µM (inactive). In addition, the GI50 was > 100 µM (inactive) in the assay with COLO 205; 29.4 µM (inactive) with SNB-75; 27 µM (inactive) with SF-539; 62.2 µM (inactive) in the assay with NCI-H23; 75.9 µM (inactive) with MDA-MB-231; 41.5 µM (inactive) in the assay on LOX IMVI. The GI50 in the assay on T47D was 34.8 µM (inactive); in the assay with ACHN it was 61.5 µM (inactive); with HOP-92 it was 38.6 µM (inactive); in the assay with OVCAR-8, 38.4 µM (inactive); with EKVX it was 77.1 µM (inactive); with Malme-3M, 4.72 µM (inactive). The GI50 in the assay on NCI-H522 is 6.9 µM (inactive).

In the case of `C=C(CC)C[C@@H]1C[C@]2(C(=O)OC)c3[nH]c4ccccc4c3CCN2C1=O`, the GI50 with HCC 2998 was 18.4 µM (inactive); in the assay with HCT-116 it was 14.7 µM (inactive); with BT-549 it was 22 µM (inactive); in the assay with NCI/ADR-RES it was 19.5 µM (inactive); in the assay with UO-31 it was 17.9 µM (inactive); with CAKI-1, 16.9 µM (inactive). For the same compound, the GI50 was 33.9 µM (inactive) in the assay with COLO 205; 21.3 µM (inactive) in the assay with SNB-75; 16.4 µM (inactive) in the assay on SF-539; 18.9 µM (inactive) in the assay with NCI-H23; 24.7 µM (inactive) with MDA-MB-231; 17.3 µM (inactive) with LOX IMVI. The GI50 in the assay with T47D was 26.2 µM (inactive); in the assay on ACHN, 26.1 µM (inactive); with HOP-92 it was 14.7 µM (inactive); in the assay on OVCAR-8 it was 33 µM (inactive); in the assay with EKVX it was 30.8 µM (inactive); in the assay with Malme-3M, 20.7 µM (inactive). For the same compound, the GI50 with NCI-H522 is 14.6 µM (inactive).

As for `CC(=O)Oc1cc2c(c3ncccc13)OC(C)(C)C2`, the GI50 is 15.5 µM (inactive) in the assay with HCC 2998; 13.4 µM (inactive) in the assay with HCT-116; > 100 µM (inactive) in the assay with BT-549; 2.95 µM (inactive) in the assay with NCI/ADR-RES; > 100 µM (inactive) in the assay on UO-31; 7.4 µM (inactive) in the assay on CAKI-1. Further, the GI50 was 16.3 µM (inactive) in the assay on NCI-H226; 18.1 µM (inactive) with COLO 205; 2.06 µM (inactive) in the assay with SNB-75; 12.1 µM (inactive) with SF-539; > 100 µM (inactive) in the assay on NCI-H23; 10.1 µM (inactive) with MDA-MB-231. Besides, the GI50 in the assay on T47D was 17.1 µM (inactive); in the assay with ACHN it was 11.1 µM (inactive); in the assay with HOP-92 it was 13 µM (inactive); in the assay with OVCAR-8 it was 14.2 µM (inactive); in the assay with Malme-3M, 11 µM (inactive); with NCI-H522 it was 1.17 µM (inactive).

`S=c1nc2[nH]c3ccc(Br)cc3c2n[nH]1`: the GI50 in the assay on HCC 2998 was > 100 µM (inactive); in the assay on HCT-116, 70.5 µM (inactive); in the assay on BT-549, 50.2 µM (inactive); in the assay on NCI/ADR-RES, 39.8 µM (inactive); in the assay on UO-31 it was 72.8 µM (inactive); in the assay on CAKI-1, 69.8 µM (inactive). Moreover, the GI50 with NCI-H226 was 94.6 µM (inactive); in the assay on COLO 205 it was 98.4 µM (inactive); in the assay on SNB-75, 40.4 µM (inactive); in the assay with SF-539, > 100 µM (inactive); with MDA-MB-231 it was 49.9 µM (inactive); with LOX IMVI, 30.1 µM (inactive). The GI50 is > 100 µM (inactive) in the assay with T47D; > 100 µM (inactive) in the assay on HOP-92; 52.1 µM (inactive) with OVCAR-8; 14.2 µM (inactive) in the assay with EKVX; 83.8 µM (inactive) with Malme-3M; 24.3 µM (inactive) in the assay with NCI-H522.

On to `CNC(=O)Nc1nc2cc([N+](=O)[O-])ccc2[nH]1`, for which the GI50 in the assay on HCC 2998 was > 100 µM (inactive); in the assay on HCT-116, > 100 µM (inactive); in the assay with BT-549, 49.9 µM (inactive); in the assay on NCI/ADR-RES, > 100 µM (inactive); with UO-31, > 100 µM (inactive); in the assay on CAKI-1 it was 61.4 µM (inactive). In addition, the GI50 in the assay on NCI-H226, in the assay on COLO 205, in the assay on SF-539, in the assay with NCI-H23, with MDA-MB-231 and in the assay on LOX IMVI was > 100 µM (inactive) each time. For the same compound, the GI50 with T47D was > 100 µM (inactive); in the assay with ACHN, > 100 µM (inactive); in the assay on HOP-92, 86.1 µM (inactive); in the assay on OVCAR-8 it was > 100 µM (inactive); in the assay on EKVX, > 100 µM (inactive); in the assay on Malme-3M, > 100 µM (inactive). For the same compound, in the assay on NCI-H522, the GI50 is 44.1 µM (inactive).

With `CC1CC(=O)N(N(C)C)C(C#N)(C#N)C1(C#N)C#N` (centres undefined), the GI50 with HCC 2998 is 18.5 µM (inactive); in the assay with HCT-116, 17 µM (inactive); in the assay on BT-549, 15.7 µM (inactive); with NCI/ADR-RES it was 21.7 µM (inactive); in the assay on UO-31 it was 16.9 µM (inactive); in the assay with CAKI-1 it was 2.3 µM (inactive). Also, the GI50 in the assay on NCI-H226 is 28.1 µM (inactive); in the assay on COLO 205 it was 3 µM (inactive); in the assay on SNB-75, > 35.6 µM (inactive); in the assay with SF-539, 24.2 µM (inactive); in the assay on NCI-H23 it was 20 µM (inactive); with MDA-MB-231 it was 15.2 µM (inactive). In addition, the GI50 was 17 µM (inactive) in the assay on LOX IMVI; 15.5 µM (inactive) with T47D; 15.4 µM (inactive) in the assay with ACHN; 7.6 µM (inactive) in the assay on HOP-92; 20.9 µM (inactive) in the assay with OVCAR-8; 23 µM (inactive) in the assay on EKVX. Further, the results for the GI50 in the assay with Malme-3M and in the assay with NCI-H522 were 12.2 µM (inactive) and 2.77 µM (inactive), respectively.

As to `CCCCN1C(=O)CC2[C@@H]3CCc4cc(OC(C)=O)ccc4C3CC[C@]2(C)C1=O` (some centres undefined), the GI50 in the assay with HCC 2998, in the assay on HCT-116, in the assay on BT-549, in the assay on NCI/ADR-RES, in the assay on UO-31 and in the assay with CAKI-1 was > 10 µM (inactive) in each case. Further, the GI50 with NCI-H226, in the assay with COLO 205, in the assay with SF-539, with NCI-H23, in the assay with MDA-MB-231 and with LOX IMVI was > 10 µM (inactive) each time. In addition, the GI50 with T47D, in the assay on ACHN, in the assay with HOP-92, in the assay with OVCAR-8, in the assay with EKVX and in the assay on Malme-3M was > 10 µM (inactive) in each case.

On to `CN(C)CCCN1C(=S)N(CCCN(C)C)c2c3ccccc3nc3c([N+](=O)[O-])ccc1c23`, for which the GI50 is 4.21 µM (inactive) in the assay with HCC 2998; 3.71 µM (inactive) with HCT-116; 14.7 µM (inactive) in the assay with BT-549; 6.95 µM (inactive) with NCI/ADR-RES; 5.66 µM (inactive) in the assay with UO-31; 5.96 µM (inactive) with CAKI-1. The GI50 in the assay on NCI-H226 is 8.02 µM (inactive); in the assay on COLO 205, 1.71 µM (inactive); in the assay on SNB-75, 7.46 µM (inactive); in the assay with SF-539, 5.04 µM (inactive); in the assay on NCI-H23, 9.08 µM (inactive); in the assay on MDA-MB-231, 10.4 µM (inactive). Also, the GI50 was 4.42 µM (inactive) in the assay with LOX IMVI; 15 µM (inactive) in the assay on T47D; 4.06 µM (inactive) in the assay with ACHN; 5.33 µM (inactive) in the assay with HOP-92; 5.31 µM (inactive) in the assay with OVCAR-8; 5.5 µM (inactive) in the assay with EKVX. The GI50 was 1.75 µM (inactive) with Malme-3M and 1.77 µM (inactive) with NCI-H522.

Take `CCOC(=O)/C(C#N)=C/c1ccc2c(-c3c(OCC)ccc4cc(/C=C(\C#N)C(=O)OCC)ccc34)c(OCC)ccc2c1`: the GI50 with HCC 2998, in the assay on HCT-116, with BT-549, with NCI/ADR-RES, in the assay with UO-31 and in the assay on CAKI-1 was > 100 µM (inactive) throughout. For the same compound, the GI50 was > 100 µM (inactive) in the assay on NCI-H226; > 100 µM (inactive) in the assay on COLO 205; > 100 µM (inactive) in the assay on SNB-75; > 100 µM (inactive) with NCI-H23; 18.5 µM (inactive) with MDA-MB-231; > 100 µM (inactive) with LOX IMVI. Moreover, the GI50 in the assay on T47D, in the assay with ACHN, in the assay on HOP-92, with OVCAR-8, in the assay with EKVX and in the assay on Malme-3M was > 100 µM (inactive) in each case. Also, the GI50 in the assay with NCI-H522 was > 100 µM (inactive).

For the compound `N[C@H](C(=O)O)[C@@H]1CC(Cl)=NO1` [ACIVICIN], the GI50 in the assay on HCC 2998 was 8.99 µM (inactive); with HCT-116 it was 0.746 µM (active); with BT-549 it was 43 µM (inactive); in the assay on NCI/ADR-RES, 4.44 µM (inactive); in the assay with UO-31, 6.25 µM (inactive); with CAKI-1, 2.52 µM (inactive). In addition, the GI50 in the assay on COLO 205 is 5.92 µM (inactive); in the assay with SNB-75, 25.9 µM (inactive); in the assay on SF-539, 3.56 µM (inactive); in the assay with NCI-H23 it was 4.07 µM (inactive); in the assay on MDA-MB-231, 72.6 µM (inactive); with LOX IMVI, 1.46 µM (inactive). The GI50 with T47D was 7.73 µM (inactive); in the assay on ACHN, 1.47 µM (inactive); in the assay with HOP-92, 33.2 µM (inactive); in the assay with OVCAR-8, 2.18 µM (inactive); in the assay on EKVX, 2.54 µM (inactive); in the assay with Malme-3M it was 4.26 µM (inactive). Also, the GI50 in the assay with NCI-H522 was 4.43 µM (inactive).
